Measured values from patent publication US20230248834A1, “DEGRADATION OF (EGFR) BY CONJUGATION OF EGFR INHIBITORS WITH E3 LIGASE LIGAND AND METHODS OF USE” (BEIGENE, LTD., priority 2020, published 2023).

Experiments:
EGFR L858R/T790M/C797S = molecular target: T1, EGFR L858R/T790M/C797S (Homo sapiens, UniProt P00533, C797S/L858R/T790M); assay: EGFR degradation HTRF assay in BaF3-LTC cells; type: cell-based; conditions: BaF3-LTC (L858R/T790M/C797S), maximum percentage of inhibition (degradation); read-out: BaF3-LTC Dmax (%)
T1 construct: expressed in transfected cells; host or cells: BaF3-LTC
Procedure: (§1) BaF3-LTC(L858R/T790M/C797S) cells and BaF3 LC(L858R/C797S) cells are treated with compounds diluted in 0.2% DMSO cell culture medium and incubate for 16 h, 37° C., 5% CO2. the final concentration of compounds in all assay is start with 10 uM, 5-fold dilution, total 8 doses were included.
(§2) After 16 h treatment, add HTRF lysis buffer to each well; seal the plate and incubate 1 hour at room temperature on a plate shaker; Once the cells are lysed, 16 μL of cell lysate are transferred to a PE 384-well HTRF detection plate; 4 μL of pre-mixed HTRF antibodies are added to each well; Cover the plate with a plate sealer, spin 1000 rpm for 1 min, Incubate overnight at room temperature; Read on BMG PheraStar with HTRF protocol (337 nm-665 nm-620 nm).
(§3) The inhibition (degradation) percentage of the compound was calculated by the following equation: Inhibition percentage of Compound=100−100×(Signal−low control)/(High control−low control), wherein signal=each test compound group
(§4) High control=Cell group with added DMSO and without compound, indicating microplate readings without EGFR degradation;
(§5) Dmax is the maximum percentage of inhibition (degradation).
(§6) The IC50 (DC50) value of a compound can be obtained by fitting the following equation
(§7) Y=Bottom+(TOP−Bottom)/(1+((IC50/X)^hillslope))
(§8) Wherein, X and Y are known values, and IC50, Hillslope, Top and Bottom are the parameters obtained by fitting with software. Y is the inhibition percentage (calculated from the equation), X is the concentration of the compound; IC50 is the concentration of the compound when the 50% inhibition is reached. The smaller the IC50 value is, the stronger the inhibitory ability of the compound is. Vice versa, the higher the IC50 value is, the weaker the inhibitory ability of the compound is; Hillslope represents the slope of the fitted curve, generally around 1*; Bottom represents the minimum value of the curve obtained by data fitting, which is generally 0%±20%; Top represents the maximum value of the curve obtained by data fitting, which is generally 100%±20%. The experimental data were fitted by calculating and analyzing with Dotmatics data analysis software.

EGFR L858R/C797S = molecular target: T2, EGFR L858R/C797S (Homo sapiens, UniProt P00533, C797S/L858R); assay: EGFR degradation HTRF assay in BaF3 LC cells; type: cell-based; conditions: BaF3 LC (L858R/C797S), maximum percentage of inhibition (degradation); read-out: BaF3 LC Dmax (%)
T2 construct: expressed in transfected cells; host or cells: BaF3 LC
Procedure: as §1, §2, §3, §4, §5, §6, §7, §8

T2 sequence (P00533 25-1210 C797S/L858R): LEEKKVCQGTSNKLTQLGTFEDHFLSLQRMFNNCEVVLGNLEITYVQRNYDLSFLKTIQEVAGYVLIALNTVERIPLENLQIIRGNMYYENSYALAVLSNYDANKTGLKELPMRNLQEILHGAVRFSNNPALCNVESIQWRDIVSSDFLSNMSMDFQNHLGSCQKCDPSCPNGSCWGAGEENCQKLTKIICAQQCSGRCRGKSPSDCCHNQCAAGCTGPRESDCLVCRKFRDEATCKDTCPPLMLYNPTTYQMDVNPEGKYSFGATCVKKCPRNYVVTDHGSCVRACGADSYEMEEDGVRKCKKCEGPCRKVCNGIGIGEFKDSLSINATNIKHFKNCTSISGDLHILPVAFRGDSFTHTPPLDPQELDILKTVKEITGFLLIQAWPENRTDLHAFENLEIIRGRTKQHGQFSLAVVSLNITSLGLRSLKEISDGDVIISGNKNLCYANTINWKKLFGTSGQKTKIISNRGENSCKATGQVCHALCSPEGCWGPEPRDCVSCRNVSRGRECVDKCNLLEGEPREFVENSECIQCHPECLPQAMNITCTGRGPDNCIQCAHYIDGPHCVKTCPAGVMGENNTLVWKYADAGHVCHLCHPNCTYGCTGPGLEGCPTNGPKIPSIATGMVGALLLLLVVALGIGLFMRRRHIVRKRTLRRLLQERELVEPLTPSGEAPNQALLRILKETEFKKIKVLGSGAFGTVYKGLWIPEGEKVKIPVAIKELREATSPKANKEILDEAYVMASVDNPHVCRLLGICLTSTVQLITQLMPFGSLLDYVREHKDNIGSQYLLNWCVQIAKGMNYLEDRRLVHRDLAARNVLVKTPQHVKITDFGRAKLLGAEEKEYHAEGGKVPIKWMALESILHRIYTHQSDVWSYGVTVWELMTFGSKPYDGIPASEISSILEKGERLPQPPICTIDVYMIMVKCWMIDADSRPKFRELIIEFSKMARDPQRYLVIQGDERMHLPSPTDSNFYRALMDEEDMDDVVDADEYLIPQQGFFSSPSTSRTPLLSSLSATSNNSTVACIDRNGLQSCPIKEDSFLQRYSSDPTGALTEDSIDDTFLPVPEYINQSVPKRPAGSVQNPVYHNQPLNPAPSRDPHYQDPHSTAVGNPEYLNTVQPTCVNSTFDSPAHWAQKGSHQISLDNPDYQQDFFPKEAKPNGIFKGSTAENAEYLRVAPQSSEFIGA
T1 sequence (P00533 25-1210 T790M/C797S/L858R): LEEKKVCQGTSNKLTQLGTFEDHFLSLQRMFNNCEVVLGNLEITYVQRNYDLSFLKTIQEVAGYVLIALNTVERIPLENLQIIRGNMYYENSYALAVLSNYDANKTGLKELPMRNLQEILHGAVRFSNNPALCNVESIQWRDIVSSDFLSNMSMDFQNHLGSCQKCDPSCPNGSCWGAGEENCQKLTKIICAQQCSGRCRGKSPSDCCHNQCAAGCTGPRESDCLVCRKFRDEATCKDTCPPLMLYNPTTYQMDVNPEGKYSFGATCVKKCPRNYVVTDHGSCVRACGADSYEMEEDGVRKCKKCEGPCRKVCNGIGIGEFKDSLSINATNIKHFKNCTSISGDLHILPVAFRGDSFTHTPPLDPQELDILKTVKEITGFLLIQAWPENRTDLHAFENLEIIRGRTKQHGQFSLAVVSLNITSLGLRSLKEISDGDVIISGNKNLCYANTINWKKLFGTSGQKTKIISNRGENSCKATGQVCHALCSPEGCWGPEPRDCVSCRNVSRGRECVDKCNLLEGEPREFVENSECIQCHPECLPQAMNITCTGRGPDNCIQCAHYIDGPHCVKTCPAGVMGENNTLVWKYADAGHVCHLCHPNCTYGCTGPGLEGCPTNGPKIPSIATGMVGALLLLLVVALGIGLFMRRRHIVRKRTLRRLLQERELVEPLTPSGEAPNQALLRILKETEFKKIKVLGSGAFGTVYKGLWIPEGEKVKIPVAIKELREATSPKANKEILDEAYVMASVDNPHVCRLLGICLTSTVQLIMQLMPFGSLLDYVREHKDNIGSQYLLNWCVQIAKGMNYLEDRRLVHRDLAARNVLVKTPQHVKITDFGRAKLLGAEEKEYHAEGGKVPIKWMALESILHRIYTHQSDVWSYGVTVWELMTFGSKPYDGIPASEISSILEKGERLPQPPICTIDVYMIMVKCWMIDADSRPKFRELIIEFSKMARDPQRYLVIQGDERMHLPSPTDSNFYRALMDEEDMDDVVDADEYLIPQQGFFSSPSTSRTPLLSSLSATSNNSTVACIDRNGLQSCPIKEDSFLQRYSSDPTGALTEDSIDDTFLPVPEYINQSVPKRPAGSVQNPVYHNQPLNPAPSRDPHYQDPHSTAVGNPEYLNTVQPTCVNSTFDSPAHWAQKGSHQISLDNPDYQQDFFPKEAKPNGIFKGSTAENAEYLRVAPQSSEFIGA

SMILES	Dmax (EGFR L858R/T790M/C797S) [%]	Dmax (EGFR L858R/C797S) [%]
CCOc1cc(N2CCC(N3CCN(CCc4c(F)ccc5c4n(CC)c(=O)n5C4CCC(=O)NC4=O)CC3)CC2)c(CC)cc1Nc1ncc(Br)c(Nc2ccc3c(=O)n(CC)ncc3c2P(C)(C)=O)n1 (centres unmarked) [Example 559, 3-(4-(2-(4-(1-(4-((5-bromo-4-((5-(dimethylphosphoryl)-2-ethyl-1-oxo-1,2-dihydrophthalazin-6-yl)amino)pyrimidin-2-yl)amino)-5-ethoxy-2-ethylphenyl)piperidin-4-yl)piperazin-1-yl)ethyl)-3-ethyl-5-fluoro-2-oxo-2,3-dihydro-1H-benzo[d]imidazol-1-yl)piperidine-2,6-dione]	92.4	90.4
CCOc1cc(N2CCC(N3CCN(CCc4cccc5c4oc(=O)n5C4CCC(=O)NC4=O)CC3)CC2)c(CC)cc1Nc1ncc(Br)c(Nc2cc(F)c3nc(CC)ccc3c2P(C)(C)=O)n1 (centres unmarked) [Example 493, 3-(7-(2-(4-(1-(4-((5-bromo-4-((5-(dimethylphosphoryl)-2-ethyl-8-fluoroquinolin-6-yl)amino)pyrimidin-2-yl)amino)-5-ethoxy-2-ethylphenyl)piperidin-4-yl)piperazin-1-yl)ethyl)-2-oxobenzo[d]oxazol-3(2H)-yl)piperidine-2,6-dione]	95.2	87.1
CCc1cc(Nc2ncc(Br)c(Nc3ccc4nc(C)ccc4c3P(C)(C)=O)n2)c(OC)cc1N1CCC(N2CCN(C(=O)[C@H]3CN(c4cc(F)c([C@H]5CCC(=O)NC5=O)c(F)c4)CC3(C)C)CC2)CC1 [Example 487, (R)-3-(4-((R)-4-(4-(1-(4-((5-bromo-4-((5-(dimethylphosphoryl)-2-methylquinolin-6-yl)amino)pyrimidin-2-yl)amino)-2-ethyl-5-methoxyphenyl)piperidin-4-yl)piperazine-1-carbonyl)-3,3-dimethylpyrrolidin-1-yl)-2,6-difluorophenyl)piperidine-2,6-dione]	98	95.6
CCc1cc(Nc2ncc(Br)c(Nc3ccc4nc(C)c(F)cc4c3P(C)(C)=O)n2)c(OC)cc1N1CCC(N2CCN(C(=O)[C@@H]3CCN(c4cc(F)c([C@H]5CCC(=O)NC5=O)c(F)c4)C3)CC2)CC1 [Example 488, (R)-3-(4-((R)-3-(4-(1-(4-((5-bromo-4-((5-(dimethylphosphoryl)-3-fluoro-2-methylquinolin-6-yl)amino)pyrimidin-2-yl)amino)-2-ethyl-5-methoxyphenyl)piperidin-4-yl)piperazine-1-carbonyl)pyrrolidin-1-yl)-2,6-difluorophenyl)piperidine-2,6-dione]	96.6	92.8
CCOc1cc(N2CCC(N3CCN(CCc4cccc5c4oc(=O)n5C4CCC(=O)NC4=O)CC3)CC2)c(CC)cc1Nc1ncc(Br)c(Nc2ccc3nc(CC)ccc3c2P(C)(C)=O)n1 (centres unmarked) [Example 473, 3-(7-(2-(4-(1-(4-((5-bromo-4-((5-(dimethylphosphoryl)-2-ethylquinolin-6-yl)amino)pyrimidin-2-yl)amino)-5-ethoxy-2-ethylphenyl)piperidin-4-yl)piperazin-1-yl)ethyl)-2-oxobenzo[d]oxazol-3(2H)-yl)piperidine-2,6-dione]	94.6	85.5
CCc1ncc2c(P(C)(C)=O)c(Nc3nc(Nc4cc(CC)c(N5CCC(N6CCN(C(=O)[C@@H]7CCN(c8cc(F)c([C@H]9CCC(=O)NC9=O)c(F)c8)C7)CC6)CC5)cc4OC)ncc3Br)ccc2n1 [Example 549, (R)-3-(4-((R)-3-(4-(1-(4-((5-bromo-4-((5-(dimethylphosphoryl)-2-ethylquinazolin-6-yl)amino)pyrimidin-2-yl)amino)-2-ethyl-5-methoxyphenyl)piperidin-4-yl)piperazine-1-carbonyl)pyrrolidin-1-yl)-2,6-difluorophenyl)piperidine-2,6-dione]	90.4	87.2

Next, values leading:

Dmax (EGFR L858R/T790M/C797S) [%]	Dmax (EGFR L858R/C797S) [%]	SMILES
96.3	87.3	CCc1ccc2c(P(C)(C)=O)c(Nc3nc(Nc4cc(CC)c(N5CCC(N6CCN(C(=O)[C@H]7CN(c8cc(F)c([C@H]9CCC(=O)NC9=O)c(F)c8)CC7(C)C)CC6)CC5)cc4OC)ncc3Br)ccc2n1 [Example 754, (R)-3-(4-((R)-4-(4-(1-(4-((5-bromo-4-((5-(dimethylphosphoryl)-2-ethylquinolin-6-yl)amino)pyrimidin-2-yl)amino)-2-ethyl-5-methoxyphenyl)piperidin-4-yl)piperazine-1-carbonyl)-3,3-dimethylpyrrolidin-1-yl)-2,6-difluorophenyl)piperidine-2,6-dione]
98.6	86.6	CCc1ccc2c(P(C)(C)=O)c(Nc3nc(Nc4cc(CC)c(N5CCC(N6CCN(C(=O)[C@@H]7CCN(c8cc(F)c([C@H]9CCC(=O)NC9=O)c(F)c8)C7)CC6)CC5)cc4OC)ncc3Br)ccc2n1 [Example 489, (R)-3-(4-((R)-3-(4-(1-(4-((5-bromo-4-((5-(dimethylphosphoryl)-2-ethylquinolin-6-yl)amino)pyrimidin-2-yl)amino)-2-ethyl-5-methoxyphenyl)piperidin-4-yl)piperazine-1-carbonyl)pyrrolidin-1-yl)-2,6-difluorophenyl)piperidine-2,6-dione]
87.8	87.8	CCOc1cc(N2CCC(N3CCN(CCc4cc(F)c([C@H]5CCC(=O)NC5=O)c(F)c4)CC3)CC2)c(CC)cc1Nc1ncc(Br)c(Nc2cc(F)c3nc(CC)ccc3c2P(C)(C)=O)n1 [Example 486, (R)-3-(4-(2-(4-(1-(4-((5-bromo-4-((5-(dimethylphosphoryl)-2-ethyl-8-fluoroquinolin-6-yl)amino)pyrimidin-2-yl)amino)-5-ethoxy-2-ethylphenyl)piperidin-4-yl)piperazin-1-yl)ethyl)-2,6-difluorophenyl)piperidine-2,6-dione]
93.2	88.9	CCc1cc(Nc2ncc(Br)c(Nc3ccc4c(=O)n(CC)ncc4c3P(C)(C)=O)n2)c(OC)cc1N1CCC(N2CCN(CCc3cc(F)c([C@H]4CCC(=O)NC4=O)c(F)c3)CC2)CC1 [Example 753, (R)-3-(4-(2-(4-(1-(4-((5-bromo-4-((5-(dimethylphosphoryl)-2-ethyl-1-oxo-1,2-dihydrophthalazin-6-yl)amino)pyrimidin-2-yl)amino)-2-ethyl-5-methoxyphenyl)piperidin-4-yl)piperazin-1-yl)ethyl)-2,6-difluorophenyl)piperidine-2,6-dione]
84.5	89.9	CCOc1cc(N2CCC(N3CCN(CCc4cc(F)cc5c4n(C)c(=O)n5C4CCC(=O)NC4=O)CC3)CC2)c(CC)cc1Nc1ncc(Br)c(Nc2ccc3nc(CC)ccc3c2P(C)(C)=O)n1 (centres unmarked) [Example 462, 3-(4-(2-(4-(1-(4-((5-bromo-4-((5-(dimethylphosphoryl)-2-ethylquinolin-6-yl)amino)pyrimidin-2-yl)amino)-5-ethoxy-2-ethylphenyl)piperidin-4-yl)piperazin-1-yl)ethyl)-6-fluoro-3-methyl-2-oxo-2,3-dihydro-1H-benzo[d]imidazol-1-yl)piperidine-2,6-dione]
92.7	94.7	CCc1ccc2c(P(C)(C)=O)c(Nc3nc(Nc4cc(CC)c(N5CCC(N6CCN(CCc7ccc8c(c7)oc(=O)n8C7CCC(=O)NC7=O)CC6)CC5)cc4OC)ncc3Br)ccc2n1 (centres unmarked) [Example 491, 3-(6-(2-(4-(1-(4-((5-bromo-4-((5-(dimethylphosphoryl)-2-ethylquinolin-6-yl)amino)pyrimidin-2-yl)amino)-2-ethyl-5-methoxyphenyl)piperidin-4-yl)piperazin-1-yl)ethyl)-2-oxobenzo[d]oxazol-3(2H)-yl)piperidine-2,6-dione]
83.7		CCOc1cc(N2CCC(N3CCN(CCc4cc(F)c([C@H]5CCC(=O)NC5=O)c(F)c4)CC3)CC2)c(CC)cc1Nc1ncc(Cl)c(Nc2cc(F)c3nc(CC)ccc3c2P(C)(C)=O)n1 [Example 730, (R)-3-(4-(2-(4-(1-(4-((5-chloro-4-((5-(dimethylphosphoryl)-2-ethyl-8-fluoroquinolin-6-yl)amino)pyrimidin-2-yl)amino)-5-ethoxy-2-ethylphenyl)piperidin-4-yl)piperazin-1-yl)ethyl)-2,6-difluorophenyl)piperidine-2,6-dione]
92.3		CCc1ccc2c(P(C)(C)=O)c(Nc3nc(Nc4cc(CC)c(N5CCC(N6CCN(CCc7cc(F)c([C@H]8CCC(=O)NC8=O)c(F)c7)CC6)CC5)cc4OC)ncc3Cl)ccc2n1 [Example 744, (R)-3-(4-(2-(4-(1-(4-((5-chloro-4-((5-(dimethylphosphoryl)-2-ethylquinolin-6-yl)amino)pyrimidin-2-yl)amino)-2-ethyl-5-methoxyphenyl)piperidin-4-yl)piperazin-1-yl)ethyl)-2,6-difluorophenyl)piperidine-2,6-dione]
